Experimental findings from article PMC12042413 (Cell chemical biology, 2025) are described below.

The target of one assay is CDK9/Cyclin T1 (Homo sapiens, UniProt P50750). The experiment in a line: biochemical kinase IC50.
In another assay the target is CDK9 (Homo sapiens, UniProt P50750). In words: competition rescue of CDK9 degradation in MOLT-4 cells. In kind it is cell-based.
Sequence of CDK9 (P50750 whole entry): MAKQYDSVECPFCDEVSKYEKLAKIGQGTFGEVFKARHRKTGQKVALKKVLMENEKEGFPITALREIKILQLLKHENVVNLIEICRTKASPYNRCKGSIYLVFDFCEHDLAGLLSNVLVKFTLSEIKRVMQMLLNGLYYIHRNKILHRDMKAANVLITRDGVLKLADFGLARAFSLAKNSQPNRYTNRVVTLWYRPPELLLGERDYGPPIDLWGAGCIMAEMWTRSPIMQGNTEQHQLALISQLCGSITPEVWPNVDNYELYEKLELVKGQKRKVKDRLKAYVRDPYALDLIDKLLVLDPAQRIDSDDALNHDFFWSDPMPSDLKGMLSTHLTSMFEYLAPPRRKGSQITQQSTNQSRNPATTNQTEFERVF

Sequence of CDK9/Cyclin T1 (P50750 whole entry): as above
Sequence of CDK9/Cyclin T1 (O60563 whole entry partner): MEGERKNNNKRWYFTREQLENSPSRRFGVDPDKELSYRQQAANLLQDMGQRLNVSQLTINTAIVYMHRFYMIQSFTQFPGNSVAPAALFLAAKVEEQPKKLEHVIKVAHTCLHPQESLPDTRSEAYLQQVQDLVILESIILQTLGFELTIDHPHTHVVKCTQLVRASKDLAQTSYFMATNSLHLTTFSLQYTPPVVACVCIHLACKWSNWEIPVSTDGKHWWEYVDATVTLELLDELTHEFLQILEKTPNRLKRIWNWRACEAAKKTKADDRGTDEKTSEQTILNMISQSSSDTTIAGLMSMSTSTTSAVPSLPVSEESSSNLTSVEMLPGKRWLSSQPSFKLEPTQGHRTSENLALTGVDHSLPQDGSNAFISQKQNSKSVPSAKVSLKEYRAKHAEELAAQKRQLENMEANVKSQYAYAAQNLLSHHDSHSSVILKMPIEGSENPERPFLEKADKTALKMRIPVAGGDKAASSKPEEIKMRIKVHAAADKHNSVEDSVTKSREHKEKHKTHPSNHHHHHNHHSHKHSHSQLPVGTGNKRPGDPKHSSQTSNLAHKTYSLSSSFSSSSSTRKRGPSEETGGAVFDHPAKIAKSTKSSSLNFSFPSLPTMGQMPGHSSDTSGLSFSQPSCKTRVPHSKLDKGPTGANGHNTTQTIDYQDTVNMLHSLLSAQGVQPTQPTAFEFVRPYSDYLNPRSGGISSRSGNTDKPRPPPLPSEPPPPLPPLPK

For the molecule `CCCc1cc(N[C@@H]2CC[C@@H](NC(=O)c3ccc(CN4CCN(c5ccc6c(c5)CN(C5CCC(=O)NC5=O)C6=O)CC4)cc3)C2)n2nccc2n1` (stereo partly drawn) [KI-CDK9d-32, 4-((4-(2-(2,6-dioxopiperidin-3-yl)-1-oxoisoindolin-5-yl)piperazin-1-yl)methyl)-N-((1R,3R)-3-((5-propylpyrazolo[1,5-a]pyrimidin-7-yl)amino)cyclopentyl)benzamide], the IC50 – broadly, the midpoint of a concentration-inhibition curve – on CDK9/Cyclin T1 was 3 nM. Turning to `CCCc1cc(N[C@@H]2CC[C@@H](NC(=O)c3ccc(CN4CCN(c5ccc6c(c5)CN(C5CCC(=O)N(C)C5=O)C6=O)CC4)cc3)C2)n2nccc2n1` (stereo partly drawn) [KI-CDK9d-32N, 4-((4-(2-(1-methyl-2,6-dioxopiperidin-3-yl)-1-oxoisoindolin-5-yl)piperazin-1-yl)methyl)-N-((1R,3R)-3-((5-propylpyrazolo[1,5-a]pyrimidin-7-yl)amino)cyclopentyl)benzamide], on CDK9, the “competition rescue of CDK9 degradation in MOLT-4 cells (Western blot, 5 uM)” value is “rescued through co-treatments with excess KB-0742, pomalidomide, or KI-CDK9d-32N, a negative control PROTAC with impaired CRBN binding”.
